Source: patent publication US9360486B2, “Allergen fragments” (Biomay AG, priority 2007, dated 2016)

Tested on: Amb a 1-specific T cell lines (TCL)
Experiment: T cell epitope mapping of Amb a 1.3: proliferation (3H-thymidine uptake) of TCL stimulated with synthetic peptides
Assay type: cell-based, human
Settings: for No. positive patients SI > 3 / No. positive patients SI > 5 / % (positive patients SI > 3) / % (positive patients SI > 5): TCL from 48 ragweed pollen-allergic patients, peptide 5 μg/ml; for No. positive patients SI > 3 / No. positive patients SI > 5: 3H-thymidine uptake after 48 hrs; for No. positive patients SI > 3 / % (positive patients SI > 3): stimulation index > 3; for No. positive patients SI > 5 / % (positive patients SI > 5): stimulation index > 5; for T cell activating region recognized by % of patients: classes of prevalence referring to SI>5, 48 TCL
From the text: The T cell response to Amb a 1 was characterized in detail using the established in vitro culture system (Jahn-Schmid et al., J. Immunol. 169: 6005-11, 2002; Jahn-Schmid et al., J. Allergy Clin. Immunol., 115: 399-404, 2005). In total, 85 clinically well-defined patients (75 from Vienna/10 from Milano) with typical case history, positive skin prick test and CAP/RAST tests for ragweed extract were included.
Peripheral blood mononuclear cells (PBMC) were isolated from heparinized blood of allergic patients by Ficoll density gradient centrifugation. To generate allergen-specific T cell lines (TCL) and T cell clones (TCC), 1.5×10^6 PBMC were stimulated with optimal doses of ragweed or mugwort extract (4 μg/ml) or rAmb a 1.3 (10 μg/ml) in 24-well flat-bottomed culture plates (Costar, USA). After 5 days human rIL-2 (10 U/ml, Boehringer, Mannheim, Germany) were added and cultures were continued for additional 7 days. Then, T cell blasts were isolated by density centrifugation. The majority of T cell blasts was further expanded with IL-2 and irradiated PBMC. A small number of T cell blasts were used to establish monoclonal T cell cultures by limiting dilution: 0.3 T cells/well were seeded into 96 well round bottom plates (Nunclone) in the presence of 2×10^5 irradiated (60 Gy) PBMC, 0.25% v/v PHA (Gibco, USA) and rIL-2 (4 U/well) in the medium mentioned above. After 14-21 days, growing microcultures were expanded at weekly intervals with irradiated PBMC and rIL-2. The specificity of TCC was assessed in proliferation assays using irradiated allogeneic or HLA-matched PBMC or irradiated EBV-transformed allogeneic B-cells and 5 μg/ml Amb a 1.3. After 48 hours, cellular uptake of tritiated (^3H)-thymidine was performed to measure proliferation in counts per minute (cpm). When the stimulation index (SI; ratio between cpm obtained in cultures containing TCC plus autologous APC plus antigen, and cpm obtained in cultures containing TCC and APC alone) was >10, responses were considered as positive. Allergen-specific TCC were expanded by alternating turns of stimulation with autologous irradiated APC and allergen or with allogeneic feeder cells and rIL-2.
Amb a 1-specific TCL and TCC were used to identify T cell epitopes of Amb a 1.3. T cell cultures were stimulated with a panel of 121 synthetic 12-mer peptides and one 13-mer representing the C-terminal peptide of Amb a 1.3 (Pepset, Biotrend, Germany). Peptides had been synthesized according to the Amb a 1.3 amino acid sequence and overlapped for 9 amino acid residues with the neighbouring peptides (Table 1). Peptides were used at a concentration of 5 μg/ml for stimulation and proliferation of T cell cultures was determined after 48 hrs by ^3H-thymidine-uptake. Because of the frequently observed high background caused by auto-reactivity in TCL, the mean of the cpm observed with the ten least stimulating peptides (none of the peptides was toxic) was used as negative control in calculations of SI. Throughout this manuscript, a peptide comprised one T cell epitope when the stimulation index was at least 3.0.
T cell epitope mapping of Amb a 1.3 was performed evaluating 48 TCL from different patients ([…]), which had been initiated with ragweed extract (containing the natural allergen) or rAmb a 1.3 (Table 2). TCL induced with either ragweed extract or rAmb a 1.3 from the same individual recognized similar T cell epitopes (Table 2; FIG. 7). […] Therefore, their data were combined for further analysis (Table 3). Typical for many inhalant allergens, multiple T cell activating regions were detected in Amb a 1.3. The number of peptides recognized by T cells from a single individual ranged from 2 to maximum 60 peptides with a mean of 17.8 peptides (median=16/for SI>3; resp. 0-36/11.9/12 for SI>5) (see Table 3). In total, 26 relevant (i.e. recognized by ≧10% of patients studied) T cell activating regions comprising 12-18 aa were identified. […]

AAAQNRPLWIIF (Amb a 1 fragment) [Peptide 29]
No. positive patients SI > 3: 4 | No. positive patients SI > 5: 3 | % (positive patients SI > 3): 8.3% | % (positive patients SI > 5): 6.3%

AEPGEAAIKLTS (Amb a 1 fragment) [Peptide 117]
No. positive patients SI > 3: 4 | No. positive patients SI > 5: 3 | % (positive patients SI > 3): 8.3% | % (positive patients SI > 5): 6.3%

AIKLTSSAGVLS (Amb a 1 fragment) [Peptide 119]
reactivity with T cells isolated from allergic individuals: reactivity with T cells | No. positive patients SI > 3: 16 | No. positive patients SI > 5: 10 | % (positive patients SI > 3): 33.3% | % (positive patients SI > 5): 20.8%

AIKLTSSAGVLSCRP (Amb a 1 fragment) [Peptide 119-120]
reactivity with T cells isolated from allergic individuals: reactivity with T cells

AKGTYGGKWGDV (Amb a 1 fragment) [Peptide 18]
No. positive patients SI > 3: 1 | No. positive patients SI > 5: 0 | % (positive patients SI > 3): 2.1% | % (positive patients SI > 5): 0.0%

ALADCAQGFAKG (Amb a 1 fragment) [Peptide 15]
No. positive patients SI > 3: 4 | No. positive patients SI > 5: 2 | % (positive patients SI > 3): 8.3% | % (positive patients SI > 5): 4.2%

AWNWRSDKDLLE (Amb a 1 fragment) [Peptide 105]
No. positive patients SI > 3: 4 | No. positive patients SI > 5: 3 | % (positive patients SI > 3): 8.3% | % (positive patients SI > 5): 6.3%

CKFTQQSKAILL (Amb a 1 fragment) [Peptide 71]
No. positive patients SI > 3: 4 | No. positive patients SI > 5: 2 | % (positive patients SI > 3): 8.3% | % (positive patients SI > 5): 4.2%

CSLSKSFDGLVD (Amb a 1 fragment) [Peptide 63]
No. positive patients SI > 3: 2 | No. positive patients SI > 5: 2 | % (positive patients SI > 3): 4.2% | % (positive patients SI > 5): 4.2%

DCAQGFAKGTYG (Amb a 1 fragment) [Peptide 16]
No. positive patients SI > 3: 2 | No. positive patients SI > 5: 0 | % (positive patients SI > 3): 4.2% | % (positive patients SI > 5): 0.0%

DGPPILRQASDG (Amb a 1 fragment) [Peptide 54]
No. positive patients SI > 3: 4 | No. positive patients SI > 5: 2 | % (positive patients SI > 3): 8.3% | % (positive patients SI > 5): 4.2%

DKCWRGKADWEN (Amb a 1 fragment) [Peptide 10]
No. positive patients SI > 3: 2 | No. positive patients SI > 5: 2 | % (positive patients SI > 3): 4.2% | % (positive patients SI > 5): 4.2%

DKDLLENGAIFV (Amb a 1 fragment) [Peptide 107]
reactivity with T cells isolated from allergic individuals: reactivity with T cells | No. positive patients SI > 3: 30 | No. positive patients SI > 5: 27 | % (positive patients SI > 3): 62.5% | % (positive patients SI > 5): 56.3%

DKDLLENGAIFVTSG (Amb a 1 fragment) [Peptide 107-108]
reactivity with T cells isolated from allergic individuals: reactivity with T cells | T cell activating region recognized by % of patients: recognized by 56.3%

DKDLLENGAIFVTSGSDPVLTPVQ (Amb a 1 fragment) [Peptide 107-111]
reactivity with T cells isolated from allergic individuals: reactivity with T cells

DTHVQDKGMLAT (Amb a 1 fragment) [Peptide 76]
No. positive patients SI > 3: 4 | No. positive patients SI > 5: 1 | % (positive patients SI > 3): 8.3% | % (positive patients SI > 5): 2.1%

DTINVAGSSQIW (Amb a 1 fragment) [Peptide 58]
No. positive patients SI > 3: 3 | No. positive patients SI > 5: 1 | % (positive patients SI > 3): 6.3% | % (positive patients SI > 5): 2.1%

DVANPKEGTLRF (Amb a 1 fragment) [Peptide 25]
No. positive patients SI > 3: 2 | No. positive patients SI > 5: 0 | % (positive patients SI > 3): 4.2% | % (positive patients SI > 5): 0.0%

EAYNIIDKCWRG (Amb a 1 fragment) [Peptide 8]
No. positive patients SI > 3: 3 | No. positive patients SI > 5: 1 | % (positive patients SI > 3): 6.3% | % (positive patients SI > 5): 2.1%

EGTLRFAAAQNR (Amb a 1 fragment) [Peptide 27]
reactivity with T cells isolated from allergic individuals: reactivity with T cells | No. positive patients SI > 3: 5 | No. positive patients SI > 5: 5 | % (positive patients SI > 3): 10.4% | % (positive patients SI > 5): 10.4%

EGTLRFAAAQNRPLW (Amb a 1 fragment) [Peptide 27-28]
reactivity with T cells isolated from allergic individuals: reactivity with T cells | T cell activating region recognized by % of patients: recognized by 22.9%

EIINGGLTLMNV (Amb a 1 fragment) [Peptide 42]
reactivity with T cells isolated from allergic individuals: reactivity with T cells | No. positive patients SI > 3: 11 | No. positive patients SI > 5: 5 | % (positive patients SI > 3): 22.9% | % (positive patients SI > 5): 10.4% | T cell activating region recognized by % of patients: recognized by 10.4%

EILPSVNETRSL (Amb a 1 fragment) [Peptide 3]
No. positive patients SI > 3: 1 | No. positive patients SI > 5: 0 | % (positive patients SI > 3): 2.1% | % (positive patients SI > 5): 0.0%

ESMAWNWRSDKD (Amb a 1 fragment) [Peptide 104]
No. positive patients SI > 3: 2 | No. positive patients SI > 5: 1 | % (positive patients SI > 3): 4.2% | % (positive patients SI > 5): 2.1%

FDGLVDVTLGST (Amb a 1 fragment) [Peptide 65]
No. positive patients SI > 3: 2 | No. positive patients SI > 5: 1 | % (positive patients SI > 3): 4.2% | % (positive patients SI > 5): 2.1%

FGFFQVVNNNYD (Amb a 1 fragment) [Peptide 86]
T cell reactivity with samples from individuals suffering from ragweed pollen allergy: high T cell reactivity | reactivity with T cells isolated from allergic individuals: reactivity with T cells | No. positive patients SI > 3: 12 | No. positive patients SI > 5: 10 | % (positive patients SI > 3): 25.0% | % (positive patients SI > 5): 20.8% | T cell activating region recognized by % of patients: recognized by 20.6%

FLAPDDQIKKNV (Amb a 1 fragment) [Peptide 97]
reactivity with T cells isolated from allergic individuals: reactivity with T cells | No. positive patients SI > 3: 6 | No. positive patients SI > 5: 4 | % (positive patients SI > 3): 12.5% | % (positive patients SI > 5): 8.3%

FQVVNNNYDRWG (Amb a 1 fragment) [Peptide 87]
reactivity with T cells isolated from allergic individuals: reactivity with T cells | No. positive patients SI > 3: 5 | No. positive patients SI > 5: 2 | % (positive patients SI > 3): 10.4% | % (positive patients SI > 5): 4.2%

GAAESMAWNWRS (Amb a 1 fragment) [Peptide 103]
No. positive patients SI > 3: 2 | No. positive patients SI > 5: 1 | % (positive patients SI > 3): 4.2% | % (positive patients SI > 5): 2.1%

GADDTHVQDKGM (Amb a 1 fragment) [Peptide 75]
No. positive patients SI > 3: 1 | No. positive patients SI > 5: 1 | % (positive patients SI > 3): 2.1% | % (positive patients SI > 5): 2.1%

GDVYTVTSNLDD (Amb a 1 fragment) [Peptide 21]
No. positive patients SI > 3: 2 | No. positive patients SI > 5: 1 | % (positive patients SI > 3): 4.2% | % (positive patients SI > 5): 2.1%

GEAAIKLTSSAG (Amb a 1 fragment) [Peptide 118]
reactivity with T cells isolated from allergic individuals: reactivity with T cells | No. positive patients SI > 3: 10 | No. positive patients SI > 5: 8 | % (positive patients SI > 3): 20.8% | % (positive patients SI > 5): 16.7%
